This assay has as its target T1, kinase domain of human CHK-1 (KH289) (Homo sapiens, UniProt O14757).
T1 construct: kinase domain of human CHK-1 (KH289), amino acid residues 1-289; made in house; host or cells: baculovirus (Bac-to-Bac); Hi-S insect cells for protein production, Sf9/Sf21 for virus amplification
T1 sequence (O14757 1-289): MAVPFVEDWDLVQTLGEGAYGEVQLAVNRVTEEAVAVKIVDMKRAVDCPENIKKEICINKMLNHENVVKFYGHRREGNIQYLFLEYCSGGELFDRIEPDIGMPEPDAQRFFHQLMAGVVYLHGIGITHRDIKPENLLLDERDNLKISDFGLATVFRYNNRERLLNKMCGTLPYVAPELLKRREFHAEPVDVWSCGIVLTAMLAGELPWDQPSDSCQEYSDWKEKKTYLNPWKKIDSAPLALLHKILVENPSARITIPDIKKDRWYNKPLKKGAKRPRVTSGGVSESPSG
In words: CHK-1 coupled spectrophotometric enzyme assay (Syntide-2, PK/LDH, NADH oxidation). The conditions noted are these: 10 nM KH289, 0.15 mM ATP, 0.125 mM Syntide-2, pH 7.5. Format: biochemical. From the text:
As previously detailed in European Patent Application No. 1 096 014 A2 (filed Oct. 31, 2000), the C-terminally His-tagged kinase domain of human CHK-1 (KH289), amino acid residues 1-289, can be expressed using the baculovirus/insect cell system. […] The Bac-to-Bac system (Life Technologies) can be used to generate recombinant baculovirus for the expression of KH289 as per instructions. Recombinant viruses can be confirmed by PCR for the presence of CHK-1 cDNA insertion. […] Sf9 insect cells (Invitrogen, Carlsbad, Calif., USA) can be used for initial amplification of recombinant virus stock. High titer stocks of recombinant viruses can be generated by 2 to 3 rounds of amplification using Sf21 insect cells. Hi-S insect cells (Invitrogen, Carlsbad, Calif., USA) can be used for protein production. Both Sf9 and Hi-S cell lines can be adapted to grow in insect medium containing 1% Fetal Bovine Serum (Life Technologies, Grand Island, N.Y., USA). The viral stock was stored at […] and used for large-scale protein production within 2 months to avoid viral instability. For protein production, infected Hi-S cells can be harvested by centrifugation and stored at −80° C. From these cells, 6X-His tagged KH289 (identified by SDS-PAGE) can be obtained after purification and can be flash-frozen in liquid N2 and stored at −80° C.
As previously detailed in European Patent Application No. 1 096 014 A2 (filed Oct. 31, 2000), the enzymatic activity of a kinase can be measured by its ability to catalyze the transfer of a phosphate residue from a nucleoside triphosphate to an amino acid side chain in a selected protein target. The conversion of ATP to ADP generally accompanies the catalytic reaction. Herein, a synthetic substrate peptide, Syntide-2, having amino acid sequence […] can be utilized. The production of ADP from ATP that accompanies phosphoryl transfer to the substrate can be coupled to oxidation of NADH using phosphoenolpyruvate (PEP) through the actions of pyruvate kinase (PK) and lactic dehydrogenase (LDH). The oxidation of NADH can be monitored by following the decrease of absorbance at 340 nm (e340=6.22 cm-1 mM-1) using a HP8452 spectrophotometer. Typical reaction solutions contained: 4 mM PEP, 0.15 mM NADH, 28 units of LDH/mL, 16 units of PK/mL, 3 mM DTT, 0.125 mM Syntide-2, 0.15 mM ATP and 25 mM MgCl2 in 50 mM TRIS pH 7.5; 400 mM NaCl. Assays can be initiated with 10 nM of kinase domain of CHK-1, KH289. Ki values can be determined by measuring initial enzyme activity in the presence of varying concentrations of inhibitors. The data can be analyzed using Enzyme Kinetic and Kaleidagraph software.

Structures can show the parent of a compound that is named as a salt.

The Ki is the dissociation constant of the complex between target and ligand, obtained from inhibition or displacement. A lower Ki goes with higher affinity. In the case of `Cn1cc(-c2[nH]c3cc(NC(=O)[C@H](N)c4ccc(F)cc4)cc4c3c2C=NNC4=O)cn1` [Example 273, (2R)-2-Amino-2-(4-fluoro-phenyl)-N-[2-(1-methyl-1H-pyrazol-4-yl)-6-oxo-5,6-dihydro-1H-[1,2]diazepino[4,5,6-cd]indol-8-yl]-acetamide (hydrochloric salt)], the inhibition constant Ki stood at 0.46 nM.

`N[C@H](CCc1ccccc1)C(=O)Nc1cc2c3c(c(Br)[nH]c3c1)C=NNC2=O` [Example 259, (2R)-2-Amino-N-(2-bromo-6-oxo-5,6-dihydro-1H-[1,2]diazepino[4,5,6-cd]indol-8-yl)-4-phenyl-butylamide (hydrochloric salt)] registered an inhibition constant (Ki) of 0.99 nM.

In turn, `N[C@H](CCc1ccccc1)C(=O)Nc1cc2c3c(c[nH]c3c1)C=NNC2=O` [Example 276, (2R)-2-Amino-N-(6-oxo-5,6-dihydro-1H-[1,2]diazepino[4,5,6-cd]indol-8-yl)-4-Phenyl-butylamide (hydrochloric salt)] gave a Ki of 4.5 nM.

The molecule `Cn1cc(-c2[nH]c3cc(NC(=O)[C@H](N)C4Cc5ccccc5C4)cc4c3c2C=NNC4=O)cn1` [Example 255, (2R)-2-Amino-2-indan-2-yl-N-[2-(1-methyl-1H-pyrazol-4-yl)-6-oxo-5,6-dihydro-1H-[1,2]diazepino[4,5,6-cd]indol-8-yl]-acetamide (hydrochloric salt)] displayed a Ki of 0.14 nM.

In the case of `CN(CC(=O)Nc1cc2c3c(c(-c4cnn(C)c4)[nH]c3c1)C=NNC2=O)Cc1ccccc1` [Example 274, 2-(Benzyl-methyl-amino)-N-[2-(1-methyl-1H-pyrazol-4-yl)-6-oxo-5,6-dihydro-1H-[1,2]diazepino[4,5,6-cd]indol-8-yl]-acetamide], the Ki was found to be 2 nM.

Molecule `Cn1cc(-c2[nH]c3cc(NC(=O)[C@]4(N)C[C@H]4c4ccccc4)cc4c3c2C=NNC4=O)cn1` [Example 262, (1S,2S)-1-Amino-2-phenyl-cyclopropanecarboxylic acid [2-(1-methyl-1H-Pyrazol-4-yl)-6-oxo-5,6-dihydro-1H-[1,2]diazepino[4,5,6-cd]indol-8-yl]-amide (hydrochloric salt)] yielded a Ki of 0.3 nM.

The molecule `Cc1cc(-c2[nH]c3cc(NC(=O)[C@H](N)C4Cc5ccccc5C4)cc4c3c2C=NNC4=O)on1` [Example 269, (2R)-2-Amino-2-indan-2-yl-N-[2-(3-methyl-isoxazol-5-yl)-6-oxo-5,6-dihydro-1H-[1,2]diazepino[4,5,6-cd]indol-8-yl]-acetamide] gave a Ki of 0.15 nM.

The molecule `Cc1ccc(-c2[nH]c3cc(NC(=O)[C@H](N)CCc4ccccc4)cc4c3c2C=NNC4=O)cn1` [Example 267, (2R)-2-Amino-N-[2-(6-methyl-pyridin-3-yl)-6-oxo-5,6-dihydro-1H-[1,2]diazepino[4,5,6-cd]indol-8-yl]-4-phenyl-butylamide (hydrochloric salt)] registered a Ki of 0.78 nM.

`Cn1cc(-c2[nH]c3cc(NC(=O)[C@H](N)CCc4ccccc4)cc4c3c2C=NNC4=O)cn1` [Example 256, (2R)-2-Amino-N-[2-(1-methyl-1H-pyrazol-4-yl)-6-oxo-5,6-dihydro-1H-[1,2]diazepino[4,5,6-cd]indol-8-yl]-4-phenyl-butylamide (hydrochloric salt)] showed a Ki of 0.78 nM.

Molecule “(2R)-2-Amino-2-indan-2-yl-N-[2-(1-methyl-1H-imidazol-4-yl)-6-oxo-5,6-dihydro-1H-[1,2]diazepino[4,5,6-cd]indol-8-yl]-acetamide (hydrochloric salt) [Example 272]” registered a Ki of 0.2 nM.

The molecule `N[C@@H](C(=O)Nc1cc2c3c(c(Cl)[nH]c3c1)C=NNC2=O)C1Cc2ccccc2C1` [Example 265, (2R)-2-Amino-N-(2-chloro-6-oxo-5,6-dihydro-1H-[1,2]diazepino[4,5,6-cd]indol-8-yl)-2-indan-2-yl-acetamide (hydrochloric salt)] came in with a Ki of 0.73 nM.

Molecule `O=C1NN=Cc2c[nH]c3cc(OCC4CC4c4ccccc4)cc1c23` (stereo not shown) [Example 275, 8-[(2-phenylcyclopropyl)methoxy]-1,5-dihydro-6H-[1,2]diazepino[4,5,6-cd]indol-6-one] showed a Ki of 7 nM.

`N[C@@H](C(=O)Nc1cc2c3c(c(-c4ccccn4)[nH]c3c1)C=NNC2=O)C1Cc2ccccc2C1` [Example 278, (2R)-2-amino-2-(2,3-dihydro-1H-inden-2-yl)-N-(6-oxo-2-pyridin-2-yl-5,6-dihydro-1H-[1,2]diazepino[4,5,6-cd]indol-8-yl)acetamide (hydrochloric salt)]: the Ki was found to be 0.47 nM.

On to `Cc1ccc(-c2[nH]c3cc(NC(=O)[C@H](N)C4Cc5ccccc5C4)cc4c3c2C=NNC4=O)cn1` [Example 260, (2R)-2-Amino-2-indan-2-yl-N-[2-(6-methyl-pyridin-3-yl)-6-oxo-5,6-dihydro-1H-[1,2]diazepino[4,5,6-cd]indol-8-yl]-acetamide (hydrochloric salt)], for which the Ki came out at 0.42 nM.

Turning to `N[C@H](CCc1ccccc1)C(=O)Nc1cc2c3c(c(Cl)[nH]c3c1)C=NNC2=O` [Example 261, (2R)-2-Amino-N-(2-chloro-6-oxo-5,6-dihydro-1H-[1,2]diazepino[4,5,6-cd]indol-8-yl)-4-phenyl-butylamide (hydrochloric salt)], the Ki worked out at 2 nM.

The molecule `Cn1cc(-c2[nH]c3cc(NC(=O)[C@H](N)COc4ccc(F)cc4)cc4c3c2C=NNC4=O)cn1` [Example 263, (2R)-2-Amino-3-(4-fluoro-phenoxy)-N-[2-(1-methyl-1H-pyrazol-4-yl)-6-oxo-5,6-dihydro-1H-[1,2]diazepino[4,5,6-cd]indol-8-yl]-propionamide (hydrochloric salt)] came in with a Ki of 0.43 nM.

In the case of `Cc1cc(-c2[nH]c3cc(NC(=O)[C@H](N)CCc4ccccc4)cc4c3c2C=NNC4=O)on1` [Example 268, (2R)-2-Amino-N-[2-(3-methyl-isoxazol-5-yl)-6-oxo-5,6-dihydro-1H-[1,2]diazepino[4,5,6-cd]indol-8-yl]-4-phenyl-butylamide (hydrochloric salt)], the Ki came to 0.01 nM.

Molecule `Cn1cnc(-c2[nH]c3cc(NC(=O)[C@H](N)C4CCCCC4)cc4c3c2C=NNC4=O)c1` [Example 271, (2R)-2-Amino-2-cyclohexyl-N-[2-(1-methyl-1H-imidazol-4-yl)-6-oxo-5,6-dihydro-1H-[1,2]diazepino[4,5,6-cd]indol-8-yl]-acetamide (hydrochloric salt)] registered a Ki of 1.2 nM.

Take `Cn1cc(-c2[nH]c3cc(NC(=O)[C@H](N)COc4ccccc4)cc4c3c2C=NNC4=O)cn1` [Example 264, (2R)-2-Amino-N-[2-(1-methyl-1H-pyrazol-4-yl)-6-oxo-5,6-dihydro-1H-[1,2]diazepino[4,5,6-cd]indol-8-yl]-3-phenoxy-propionamide (hydrochloric salt)]: the Ki is 0.48 nM.

For `N[C@@H](C(=O)Nc1cc2c3c(c[nH]c3c1)C=NNC2=O)C1Cc2ccccc2C1` [Example 257, (2R)-2-Amino-2-indan-2-yl-N-(6-oxo-5,6-dihydro-1H-[1,2]diazepino[4,5,6-cd]indol-8-yl)-acetamide (hydrochloric salt)], affinity was put at a Ki of 0.27 nM.

In turn, `N[C@H](CCc1ccccc1)C(=O)Nc1cc2c3c(c(-c4ccccn4)[nH]c3c1)C=NNC2=O` [Example 277, (2R)-2-amino-N-(6-oxo-2-pyridin-2-yl-5,6-dihydro-1H-[1,2]diazepino[4,5,6-cd]indol-8-yl)-4-phenylbutanamide] registered a Ki of 0.55 nM.

The molecule `Cn1cnc(-c2[nH]c3cc(NC(=O)[C@H](N)CCc4ccccc4)cc4c3c2C=NNC4=O)c1` [Example 266, (2R)-2-Amino-N-[2-(1-methyl-1H-imidazol-4-yl)-6-oxo-5,6-dihydro-1H-[1,2]diazepino[4,5,6-cd]indol-8-yl]-4-phenyl-butylamide (hydrochloric salt)] gave a Ki of 0.29 nM.

(Values after patent publication US7462713B2, “Tricyclic compounds protein kinase inhibitors for enhancing the efficacy of anti-neoplastic agents and radiation therapy” (Agouron Pharmaceuticals, Inc., priority 2003, dated 2008).)
